Tests used:
[1] = target: Replicase polyprotein 1ab (Severe acute respiratory syndrome coronavirus 2, UniProt P0DTD1); assay: Inhibition of wild type recombinant SARS-CoV-2 3CLpro (1 to 306 residues) expressed in Escherichia coli (DE3) competent cells using CP488-ESATLQSGLRKAK-(CPQ2)-NH2 as substrate preincubated for 30 mins followed by substrate addition and measured after 4 hrs by FRET assay
[2] = Apparent permeability in MDCK cells; type: ADME, cell-based, Canis lupus familiaris; conditions: dog
[3] = Oral bioavailability in rat; type: ADME, organism-based; conditions: in vivo
[4] = MRT in dog at 3 mg/kg, po or 1 mg/kg, iv measured upto 24 hrs by LC-MS analysis; type: ADME, organism-based, Canis lupus familiaris; conditions: in vivo
[5] = Oral bioavailability in rat at 3 mg/kg measured upto 24 hrs by LC-MS analysis; type: ADME, organism-based; conditions: in vivo
CYP3A4 = CYP3A4 (Homo sapiens, UniProt P08684); assay: Ratio of IC50 for time dependent inhibition of CYP3A4 in human liver microsomes incubated for 30 mins in presence of NADPH to IC50 for time dependent inhibition of CYP3A4 in human liver microsomes incubated for 30 mins in absence of NADPH; design: species or system Microsome; conditions: read-out: Ratio IC50
[6] = target: T1, Nuclear receptor subfamily 1 group I member 2 (Homo sapiens, UniProt O75469); assay: Activation of PXR (unknown origin); type: toxicity
T1 sequence (O75469 whole entry): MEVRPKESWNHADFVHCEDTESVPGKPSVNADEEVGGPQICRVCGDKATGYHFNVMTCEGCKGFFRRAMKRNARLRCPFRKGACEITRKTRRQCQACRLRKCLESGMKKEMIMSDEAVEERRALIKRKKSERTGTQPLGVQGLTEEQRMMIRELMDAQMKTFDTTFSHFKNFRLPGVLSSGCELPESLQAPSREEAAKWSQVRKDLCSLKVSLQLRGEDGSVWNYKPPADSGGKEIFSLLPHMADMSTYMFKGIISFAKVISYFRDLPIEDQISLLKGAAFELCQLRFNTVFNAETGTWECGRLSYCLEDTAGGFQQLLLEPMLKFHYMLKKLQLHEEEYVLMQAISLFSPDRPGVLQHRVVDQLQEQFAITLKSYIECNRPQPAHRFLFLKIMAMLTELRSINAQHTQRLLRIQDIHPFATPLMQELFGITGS

[7] = Oral bioavailability in Wistar-Han rat at 2 mg/kg; type: ADME, organism-based; conditions: in vivo

CYP3A4, sequence (P08684 whole entry): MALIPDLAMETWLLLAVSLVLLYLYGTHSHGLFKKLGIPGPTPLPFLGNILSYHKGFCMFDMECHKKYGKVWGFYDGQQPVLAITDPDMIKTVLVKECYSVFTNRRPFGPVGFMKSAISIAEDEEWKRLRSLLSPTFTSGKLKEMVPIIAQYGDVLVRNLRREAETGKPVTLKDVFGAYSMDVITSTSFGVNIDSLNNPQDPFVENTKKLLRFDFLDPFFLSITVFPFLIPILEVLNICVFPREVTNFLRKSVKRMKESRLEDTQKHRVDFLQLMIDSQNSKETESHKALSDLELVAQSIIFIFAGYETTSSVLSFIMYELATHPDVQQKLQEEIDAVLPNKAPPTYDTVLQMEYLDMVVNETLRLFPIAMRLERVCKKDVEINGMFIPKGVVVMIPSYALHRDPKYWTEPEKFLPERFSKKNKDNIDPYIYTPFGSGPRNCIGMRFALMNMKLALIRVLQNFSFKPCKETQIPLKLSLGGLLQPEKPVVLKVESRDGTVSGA

COC(=O)N[C@H](C(=O)N1CC2(CCOCC2)C[C@H]1C(=O)N[C@@H](CCC(C)(F)F)C(=O)C(=O)NC1CC1)C(C)(C)C
IC50 [1]: 297 nM

COC(=O)N[C@H](C(=O)N1CC2(CCCCC2)C[C@H]1C(=O)N[C@@H](CCC(F)F)C(=O)C(=O)NC1CC1)C(C)(C)C
IC50 [1]: 123 nM

CC(F)(F)CC[C@H](NC(=O)[C@@H]1CC2(CCCCC2)CN1C(=O)C(O)c1cccc(F)c1)C(=O)C(=O)NC1CC1 (stereo partly drawn)
IC50 [1]: 56 nM

CC(C)(C)NC(=O)N[C@H](C(=O)N1C[C@H]2[C@@H]([C@H]1C(=O)N[C@@H](C[C@@H]1CCNC1=O)C(=O)C(N)=O)C2(C)C)C(C)(C)C
Papp [2]: < 1.13 ×10⁻⁶ cm/s
bioavailability [3]: 0.2%

COC(=O)N[C@H](C(=O)N1CC[C@@H](C(F)(F)F)C[C@H]1C(=O)N[C@@H](CCC(C)(F)F)C(=O)C(=O)NC1CC1)C(C)(C)C
MRT [4]: 8.6 h
bioavailability [5]: 40%

COC(=O)N[C@H](C(=O)N1CC2(CCCCC2)C[C@H]1C(=O)N[C@@H](CCC(C)(F)F)C(=O)C(=O)NCc1ccccc1)C(C)(C)C
IC50 shift at 0.5 h (CYP3A4): > 3.1
EC50 [6]: 3900 nM

COC(=O)N[C@H](C(=O)N1CC2(CCC(F)(F)CC2)C[C@H]1C(=O)N[C@@H](CCC(C)(F)F)C(=O)C(=O)NC1CC1)C(C)(C)C
IC50 [1]: 270 nM

CC(C)(C)CC(=O)N1CC2(CCCCC2)C[C@H]1C(=O)N[C@@H](CCC(C)(F)F)C(=O)C(=O)NC1CC1
IC50 [1]: 890 nM

COC(=O)N[C@H](C(=O)N1C[C@@H]2CCC[C@@H]2[C@H]1C(=O)N[C@@H](CCC(C)(C)F)C(=O)C(=O)NC1CC1)C(C)(C)C
IC50 [1]: 26 nM

COc1cccc2[nH]c(C(=O)N[C@@H](CC(C)C)C(=O)N[C@@H](C[C@@H]3CCNC3=O)C(=O)CO)cc12 [PF-00835231]
bioavailability [7]: < 2%

COC(=O)N[C@H](C(=O)N1CC2(CCCCC2)C[C@H]1C(=O)N[C@@H](CC1CC1(F)F)C(=O)C(=O)NC1CC1)C(C)(C)C (stereo partly drawn)
IC50 [1]: 355 nM

CNC(=O)C(=O)[C@H](CCC(C)(F)F)NC(=O)[C@@H]1C[C@H](C(F)(F)F)CCN1C(=O)[C@@H](NC(=O)OC)C(C)(C)C
MRT [4]: 3.1 h
bioavailability [5]: 63%

CC(C)C[C@H](NC(=O)OCc1ccccc1)C(=O)N[C@@H](C[C@@H]1CCNC1=O)C(O)S(=O)(=O)[O-].[Na+] (stereo partly drawn)
bioavailability [3]: 3%

CC(F)(F)CC[C@H](NC(=O)[C@@H]1[C@@H]2[C@H](CN1C(=O)[C@@H](NC(=O)NC1(CS(=O)(=O)C(C)(C)C)CCCCC1)C(C)(C)C)C2(C)C)C(=O)C(=O)NC1CC1
IC50 [1]: 129 nM

COC(=O)N[C@H](C(=O)N1C[C@@H]2CCC[C@@H]2[C@H]1C(=O)N[C@@H](CCC(C)(F)F)C(=O)C(=O)NC1CC1)C(C)(C)C
MRT [4]: 2.7 h
bioavailability [5]: 47%

COC(=O)N[C@H](C(=O)N1CC2(CCCCC2)C[C@H]1C(=O)N[C@@H](CCC(C)(F)F)C(=O)C(=O)NC1CCCCC1)C(C)(C)C
IC50 [1]: 77 nM
IC50 shift at 0.5 h (CYP3A4): > 6
EC50 [6]: 2300 nM

CCCC[C@H](NC(=O)[C@@H]1CC2(CCCCC2)CN1C(=O)[C@@H](NC(=O)OC)C(C)(C)C)C(=O)C(=O)NC1CC1
IC50 [1]: 715 nM

COC(=O)N[C@H](C(=O)N1CC2(C[C@H]1C(=O)N[C@@H](CCC(C)(F)F)C(=O)C(=O)NC1CC1)CC2(F)F)C(C)(C)C (stereo partly drawn)
MRT [4]: 3.2 h

COC(=O)N[C@H](C(=O)N1CC2(CCCCC2)C[C@H]1C(=O)N[C@@H](CCC(C)(F)F)C(=O)C(=O)NCc1ccncc1)C(C)(C)C
IC50 [1]: 30 nM
IC50 shift at 0.5 h (CYP3A4): ~1
EC50 [6]: > 30000 nM

COC(=O)N[C@H](C(=O)N1CCC2(CC2)C[C@H]1C(=O)N[C@@H](CCC(C)(F)F)C(=O)C(=O)NC1CC1)C(C)(C)C
MRT [4]: 3.6 h
Papp [2]: 16 ×10⁻⁶ cm/s
bioavailability [5]: 60%

COC(=O)N[C@H](C(=O)N1C[C@@H]2CCC[C@@H]2[C@H]1C(=O)N[C@@H](CC[C@@H](C)F)C(=O)C(=O)NC1CC1)C(C)(C)C
IC50 [1]: 11 nM

COC(=O)N[C@H](C(=O)N1CC2(CCCCC2)C[C@H]1C(=O)N[C@@H](CCC(F)(F)F)C(=O)C(=O)NC1CC1)C(C)(C)C
IC50 [1]: 382 nM

CNC(=O)C(=O)[C@H](CCC(C)(F)F)NC(=O)[C@@H]1CC2(CCCCC2)CN1C(=O)[C@@H](NC(=O)OC)C(C)(C)C
IC50 shift at 0.5 h (CYP3A4): > 1.6
EC50 [6]: 5800 nM

CC(F)(F)CC[C@H](NC(=O)[C@@H]1CC2(CCCCC2)CN1C(=O)[C@@H](NC(=O)OCc1ccccc1)C1CCCCC1)C(=O)C(=O)NC1CC1
IC50 [1]: 16 nM

CC(F)(F)CC[C@H](NC(=O)[C@@H]1CC2(CCCCC2)CN1C(=O)c1cc2ccccc2[nH]1)C(=O)C(=O)NC1CC1
IC50 [1]: 64 nM

COC(=O)N[C@H](C(=O)N1C[C@@H]2CCC[C@@H]2[C@H]1C(=O)N[C@@H](CC[C@H](C)F)C(=O)C(=O)NC1CC1)C(C)(C)C
IC50 [1]: 23 nM

COC(=O)N[C@H](C(=O)N1C[C@H]2[C@@H]([C@H]1C(=O)N[C@@H](CCC(C)(F)F)C(=O)C(=O)NC1CC1)C21CCOCC1)C(C)(C)C
MRT [4]: 2.4 h
bioavailability [5]: 40%

COC(=O)N[C@H](C(=O)N1CC2(CCCCC2)C[C@H]1C(=O)N[C@@H](CCC(C)(F)F)C(=O)C(N)=O)C(C)(C)C
IC50 [1]: 25 nM
IC50 shift at 0.5 h (CYP3A4): > 1
EC50 [6]: > 30000 nM

COC(=O)N[C@H](C(=O)N1CC2(CCCCC2)C[C@H]1C(=O)N[C@@H](CCC(C)(F)F)C(=O)C(=O)NC1CC1)C(C)(C)C
MRT [4]: 0.8 h
bioavailability [5]: 26%
IC50 [1]: 11 nM
IC50 shift at 0.5 h (CYP3A4): > 1.3
EC50 [6]: 6800 nM

Source: ChEMBL document CHEMBL5528064, “Invention of MK-7845, a SARS-CoV-2 3CL Protease Inhibitor Employing a Novel Difluorinated Glutamine Mimic” (J Med Chem, 2024)
